Data published in patent US6479435B1, “Diaryl ethers and processes for their preparation and herbicidal and desiccant compositions containing them” (ISK Americas Incorporated, priority 1997, dated 2002).

Experiments:
Type in all cases: in vivo
Grass Weeds [1] = assay: Post-emergent application in combination with other herbicides, percent control of grass weeds; settings: 31.25 g ai/ha
Protocol: All test compounds were dissolved in acetone and applied to the test units in a volume of 187 l/ha. Test materials were applied at rates ranging from 125 g ai/ha to 1000 g ai/ha using a track sprayer equipped with a TJ8001E even flow flat fan spray nozzle. Plants were arranged on a shelf so that the top of the canopy (post-emerge) or top of the soil surface (pre-emerge) was 40-45 cm below the nozzle. Pressurized air was used to force the test solution through the nozzle as it was mechanically advanced (via electrically driven chain drive) over the top of all test plants/pots. This application simulates a typical commercial field herbicide application. In the post-emerge test, a commercial non-ionic surfactant was also included (0.25% v/v) to enhance wetting of the leaf surfaces Qf target plants at rates ranging from 63 g ai/ha to 1000 g ai/ha. For post-emerge tests, seeds were planted 8-21 days prior to the test to allow emergence and good foliage development prior to application of the test substances. At the time of the post-emerge application, plants of all species were usually at the 2-3 leaf stage of development. Post-emerge test units were always bottom-watered. At 14 days after application of the test materials, phytotoxicity ratings were recorded. A rating scale of 0-100 was used as previously described in Research Methods in Weed Science, 2nd edition, B. Truelove, Ed., Southern Weed Science Society, Auburn University, Auburn, Ala., 1977. Briefly, “0” corresponds to no damage and “100” corresponds to complete death of all plants in the test unit. This scale was used both to determine efficacy against weed species and damage to crop species. Herbicide activity data for various compounds of this invention, which are shown by compound number in Tables 1-9, are shown in Tables 13 and 14. […] (Note: Weed species abbreviations are from the Composite List of Weeds published by the Weed Science Society of America, 1989.) The following examples illustrate the utility of combinations of compounds of this invention and existing herbicides. The methods used are identical to those for the application of single compounds except the commercial formulations of existing herbicides were added to the spray mixture in the appropriate amounts before spraying. Combination Example 3. Post-emergent Application of Compound 9-1 with Nicosulfuron Combination Example 4. Postemergent Application of Compound 9-1 with Pyridate

Broadleaf Weeds = assay: Pre-emergent application in combination with other herbicides, percent control of broadleaf weeds; settings: 62.5 g ai/ha
Protocol: (§1) All plants were grown in 10 cm square plastic pots which were filled with a sandy loam soil mix. For preemerge tests, seeds were planted one day prior to application of the test compounds. Immediately after application, test units of the pre-emerge applications were watered at the soil surface to incorporate the test materials. Subsequently, these test units were bottom-watered.
(§2) All test compounds were dissolved in acetone and applied to the test units in a volume of 187 l/ha. […] Plants were arranged on a shelf so that the top of the canopy (post-emerge) or top of the soil surface (pre-emerge) was 40-45 cm below the nozzle. Pressurized air was used to force the test solution through the nozzle as it was mechanically advanced (via electrically driven chain drive) over the top of all test plants/pots. This application simulates a typical commercial field herbicide application.
(§3) At 14 days after application of the test materials, phytotoxicity ratings were recorded. A rating scale of 0-100 was used as previously described in Research Methods in Weed Science, 2nd edition, B. Truelove, Ed., Southern Weed Science Society, Auburn University, Auburn, Ala., 1977. Briefly, “0” corresponds to no damage and “100” corresponds to complete death of all plants in the test unit. This scale was used both to determine efficacy against weed species and damage to crop species. Herbicide activity data for various compounds of this invention, which are shown by compound number in Tables 1-9, are shown in Tables 13 and 14.
(§4) (Note: Weed species abbreviations are from the Composite List of Weeds published by the Weed Science Society of America, 1989.)
The following examples illustrate the utility of combinations of compounds of this invention and existing herbicides. The methods used are identical to those for the application of single compounds except the commercial formulations of existing herbicides were added to the spray mixture in the appropriate amounts before spraying. […]
(§5) Combination Example 2. Pre-emergent Application of Compound 9-1 with Dimethenamid

Grass Weeds [2] = assay: Pre-emergent application in combination with other herbicides, percent control of grass weeds; settings: 62.5 g ai/ha
Protocol: as §1, §2, §3, §4
The following examples illustrate the utility of combinations of compounds of this invention and existing herbicides. The methods used are identical to those for the application of single compounds except the commercial formulations of existing herbicides were added to the spray mixture in the appropriate amounts before spraying.
Combination Example 1. Pre-emergent Application of Compound 9-1 with Metolachlor
as §5

## Nn1c(C(F)(F)F)cc(=O)n(-c2cc(Oc3ncccc3[N+](=O)[O-])c(Cl)cc2F)c1=O [Compound 9-1, 1-amino-3-[4-chloro-2-fluoro-5-(3-nitro-2-pyridyloxy)phenyl]-6-trifluoromethyl-1,2,3,4-tetrahydropyrimidine-2,4-dione]
Grass Weeds [1]
  Percent Control of Grass Weeds DIGSA: 10%
  Percent Control of Grass Weeds ECHCG: 0%
  Percent Control of Grass Weeds SETVI: 10%
  Percent Control of Grass Weeds SORHA: 10%
Grass Weeds [1]; Combination Example 4
  Percent Control of Grass Weeds DIGSA: 10%
  Percent Control of Grass Weeds ECHCG: 0%
  Percent Control of Grass Weeds SETVI: 10%
  Percent Control of Grass Weeds SORHA: 10%
Broadleaf Weeds
  Percent Control of Broadleaf Weeds ABUTH: 95%
  Percent Control of Broadleaf Weeds AMARE: 100%
  Percent Control of Broadleaf Weeds AMBEL: 40%
  Percent Control of Broadleaf Weeds CASOB: 10%
  Percent Control of Broadleaf Weeds CHEAL: 100%
  Percent Control of Broadleaf Weeds IPOHE: 50%
Broadleaf Weeds; Combination Example 2
  Percent Control of Broadleaf Weeds ABUTH: 95%
  Percent Control of Broadleaf Weeds AMARE: 100%
  Percent Control of Broadleaf Weeds AMBEL: 40%
  Percent Control of Broadleaf Weeds CASOB: 10%
  Percent Control of Broadleaf Weeds CHEAL: 100%
  Percent Control of Broadleaf Weeds IPOHE: 50%
Grass Weeds [2]
  Percent Control of Grass Weeds DIGSA: 20%
  Percent Control of Grass Weeds ECHCG: 0%
  Percent Control of Grass Weeds SETVI: 90%
  Percent Control of Grass Weeds SORHA: 0%
Grass Weeds [2]; Combination Example 2
  Percent Control of Grass Weeds DIGSA: 20%
  Percent Control of Grass Weeds ECHCG: 0%
  Percent Control of Grass Weeds SETVI: 90%
  Percent Control of Grass Weeds SORHA: 0%
